# Data from patent US12569509B2, “Method and composition for preventing and treating viral infections” (priority 2017, dated 2026).
# “And” between values parts separate entries of the source, which are not always exact repeats. Equal entries are not always repeated.
# Tests used:
# human PBMC = test: LPS stimulated cytokine secretion in human PBMC pretreated with compounds (Phase 2); format: cell-based; set-up: TNF-α concentration in supernatant / IL-1β concentration in supernatant / IL-6 concentration in supernatant / IL-2 concentration in supernatant / IFN-g concentration in supernatant: unit of the concentration uncertain; settings: for IL-1β Mean Fold-Change (Relative to LPS alone) / IL-6 Mean Fold-Change (Relative to LPS alone) / TNF-α Mean Fold-Change (Relative to LPS alone): 1 ng/mL LPS stimulation for 8 hours, means from 3 donors; for IL-2 concentration in supernatant / TNF-α concentration in supernatant / IL-1β concentration in supernatant / IFN-g concentration in supernatant / IL-6 concentration in supernatant: 8-hour 1 ng/mL LPS stimulation; for IL-2 concentration in supernatant: LLOQ = 1.698 pg/mL; for TNF-α concentration in supernatant: LLOQ = 2.018 pg/mL; for IL-1β concentration in supernatant: LLOQ = 2.299 pg/mL; for IFN-g concentration in supernatant: LLOQ = 2.792 pg/mL; for IL-6 concentration in supernatant: LLOQ = 0.831; for Effect on LPS stimulated cytokine secretion: any conditions tested
# Text: Results are represented as fold-change relative to LPS treatment alone for each cytokine calculated by means from 3 separate donors.
# RPMI medium alone, RPMI supplemented with 0.2% DMSO (to mimic treatment conditions) or LPS stimulation alone were used as controls.
# Except for the two negative control conditions, all 3 donors responded to all experimental conditions tested with the secretion of TNF-α, IL-1β, and IL-6 albeit with a high degree of variability.
# RecQ helicase = target: T1, RecQ helicase (Escherichia coli, UniProt P15043); test: Cell-free fluorescence molecular beacon helicase assay; format: biochemical, E. coli; set-up: Average rate of reaction / Rate (Triplicate): unit: RFU/min; settings: for Average rate of reaction: mean of triplicate; for Rate (Triplicate): rate of reaction=(F0-F35)/35; for Fluorescence at 35 minutes, Run 2 / Fluorescence at time 0, Run 2: duplicate, listed as M; for Change in helicase activity compared to the DMSO control: any of the tested concentrations (0.06-200 μg/mL)
# T1 construct: a full-length E. coli helicase, RecQ, was used
# T1 sequence (P15043 whole entry): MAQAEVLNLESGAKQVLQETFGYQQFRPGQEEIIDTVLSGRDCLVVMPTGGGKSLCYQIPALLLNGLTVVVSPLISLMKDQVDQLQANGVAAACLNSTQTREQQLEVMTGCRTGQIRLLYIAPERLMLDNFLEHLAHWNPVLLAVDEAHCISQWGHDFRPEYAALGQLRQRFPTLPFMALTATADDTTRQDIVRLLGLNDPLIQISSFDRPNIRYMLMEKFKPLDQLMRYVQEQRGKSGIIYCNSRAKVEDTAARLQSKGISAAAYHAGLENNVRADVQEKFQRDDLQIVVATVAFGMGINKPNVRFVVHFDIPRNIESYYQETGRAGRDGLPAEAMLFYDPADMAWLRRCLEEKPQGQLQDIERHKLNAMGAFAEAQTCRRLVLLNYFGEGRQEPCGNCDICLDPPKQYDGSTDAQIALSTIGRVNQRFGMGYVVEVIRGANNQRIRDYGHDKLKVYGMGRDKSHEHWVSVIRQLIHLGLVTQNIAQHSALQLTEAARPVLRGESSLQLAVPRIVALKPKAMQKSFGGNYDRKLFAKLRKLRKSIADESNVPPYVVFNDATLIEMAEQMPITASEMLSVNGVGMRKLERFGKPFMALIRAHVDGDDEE
# [1] = TA 0.2 μg/mL (plate column 5, wells A-C)
# [2] = TA 2 μg/mL (plate column 7, wells A-C)
# [3] = TA 6 μg/mL (plate column 8, wells A-C)
# [4] = TA 200 μg/mL (plate column 11, wells A-C)
# [5] = TA 200 + Buffer (plate column 12, wells A-C)
structure (smiles),measurement,setting,value
O=c1c(O)c(-c2cc(O)c(O)c(O)c2)oc2cc(O)cc(O)c12 [Myricetin],IL-1β Mean Fold-Change (Relative to LPS alone),human PBMC; 10 mM (so in the source),1.10
same,IL-6 Mean Fold-Change (Relative to LPS alone),human PBMC; 10 mM (so in the source),0.97
same,TNF-α Mean Fold-Change (Relative to LPS alone),human PBMC; 10 mM (so in the source),0.90
same,IL-1β Mean Fold-Change (Relative to LPS alone),human PBMC; 100 mM (so in the source),1.09
same,IL-6 Mean Fold-Change (Relative to LPS alone),human PBMC; 100 mM (so in the source),0.88
same,TNF-α Mean Fold-Change (Relative to LPS alone),human PBMC; 100 mM (so in the source),0.93
same,IL-1β Mean Fold-Change (Relative to LPS alone),human PBMC; 200 mM (so in the source),0.98
same,IL-6 Mean Fold-Change (Relative to LPS alone),human PBMC; 200 mM (so in the source),0.75
same,TNF-α Mean Fold-Change (Relative to LPS alone),human PBMC; 200 mM (so in the source),0.86
same,IL-2 concentration in supernatant,"human PBMC; Donor 1, 10 (unit uncertain)",<LLOQ
same,TNF-α concentration in supernatant,"human PBMC; Donor 1, 10 (unit uncertain)",1496.9 pg/mL
same,IL-1β concentration in supernatant,"human PBMC; Donor 1, 10 (unit uncertain)",3079.47 pg/mL
same,IFN-g concentration in supernatant,"human PBMC; Donor 1, 10 (unit uncertain)",<LLOQ
same,IL-6 concentration in supernatant,"human PBMC; Donor 1, 10 (unit uncertain)",884.11 pg/mL
same,IL-2 concentration in supernatant,"human PBMC; Donor 1, 100 (unit uncertain)",<LLOQ
same,TNF-α concentration in supernatant,"human PBMC; Donor 1, 100 (unit uncertain)",1251.59 pg/mL
same,IL-1β concentration in supernatant,"human PBMC; Donor 1, 100 (unit uncertain)",2858.12 pg/mL
same,IFN-g concentration in supernatant,"human PBMC; Donor 1, 100 (unit uncertain)",<LLOQ
same,IL-6 concentration in supernatant,"human PBMC; Donor 1, 100 (unit uncertain)",767.01 pg/mL
same,IL-2 concentration in supernatant,"human PBMC; Donor 1, 200 (unit uncertain)",<LLOQ
same,TNF-α concentration in supernatant,"human PBMC; Donor 1, 200 (unit uncertain)",1811.82 pg/mL
same,IL-1β concentration in supernatant,"human PBMC; Donor 1, 200 (unit uncertain)",2923.92 pg/mL
same,IFN-g concentration in supernatant,"human PBMC; Donor 1, 200 (unit uncertain)",<LLOQ
same,IL-6 concentration in supernatant,"human PBMC; Donor 1, 200 (unit uncertain)",781.22 pg/mL
same,IL-2 concentration in supernatant,"human PBMC; Donor 2, 10 (unit uncertain)",<LLOQ
same,TNF-α concentration in supernatant,"human PBMC; Donor 2, 10 (unit uncertain)",1006.28 pg/mL
same,IL-1β concentration in supernatant,"human PBMC; Donor 2, 10 (unit uncertain)",2517.48 pg/mL
same,IFN-g concentration in supernatant,"human PBMC; Donor 2, 10 (unit uncertain)",<LLOQ
same,IL-6 concentration in supernatant,"human PBMC; Donor 2, 10 (unit uncertain)",685.49 pg/mL
same,IL-2 concentration in supernatant,"human PBMC; Donor 2, 100 (unit uncertain)",<LLOQ
same,TNF-α concentration in supernatant,"human PBMC; Donor 2, 100 (unit uncertain)",1597.26 pg/mL
same,IL-1β concentration in supernatant,"human PBMC; Donor 2, 100 (unit uncertain)",3046.49 pg/mL
same,IFN-g concentration in supernatant,"human PBMC; Donor 2, 100 (unit uncertain)",<LLOQ
same,IL-6 concentration in supernatant,"human PBMC; Donor 2, 100 (unit uncertain)",833.84 pg/mL
same,IL-2 concentration in supernatant,"human PBMC; Donor 2, 200 (unit uncertain)",<LLOQ
same,TNF-α concentration in supernatant,"human PBMC; Donor 2, 200 (unit uncertain)",1021.2 pg/mL
same,IL-1β concentration in supernatant,"human PBMC; Donor 2, 200 (unit uncertain)",2501.45 pg/mL
same,IFN-g concentration in supernatant,"human PBMC; Donor 2, 200 (unit uncertain)",<LLOQ
same,IL-6 concentration in supernatant,"human PBMC; Donor 2, 200 (unit uncertain)",649.98 pg/mL
same,IL-2 concentration in supernatant,"human PBMC; Donor 3, 10 (unit uncertain)",<LLOQ
same,TNF-α concentration in supernatant,"human PBMC; Donor 3, 10 (unit uncertain)",4121.89 pg/mL
same,IL-1β concentration in supernatant,"human PBMC; Donor 3, 10 (unit uncertain)",3880.95 pg/mL
same,IFN-g concentration in supernatant,"human PBMC; Donor 3, 10 (unit uncertain)",<LLOQ
same,IL-6 concentration in supernatant,"human PBMC; Donor 3, 10 (unit uncertain)",685.49 pg/mL
same,IL-2 concentration in supernatant,"human PBMC; Donor 3, 100 (unit uncertain)",<LLOQ
same,TNF-α concentration in supernatant,"human PBMC; Donor 3, 100 (unit uncertain)",3225.93 pg/mL
same,IL-1β concentration in supernatant,"human PBMC; Donor 3, 100 (unit uncertain)",3293.89 pg/mL
same,IFN-g concentration in supernatant,"human PBMC; Donor 3, 100 (unit uncertain)",<LLOQ
same,IL-6 concentration in supernatant,"human PBMC; Donor 3, 100 (unit uncertain)",833.84 pg/mL
same,IL-2 concentration in supernatant,"human PBMC; Donor 3, 200 (unit uncertain)",<LLOQ
same,TNF-α concentration in supernatant,"human PBMC; Donor 3, 200 (unit uncertain)",2528.98 pg/mL
same,IL-1β concentration in supernatant,"human PBMC; Donor 3, 200 (unit uncertain)",2756.81 pg/mL
same,IFN-g concentration in supernatant,"human PBMC; Donor 3, 200 (unit uncertain)",<LLOQ
same,IL-6 concentration in supernatant,"human PBMC; Donor 3, 200 (unit uncertain)",649.98 pg/mL
same,Effect on LPS stimulated cytokine secretion,human PBMC,did not appear to have any effect
same,Effect on LPS stimulated cytokine secretion,human PBMC; listed as myricetin,no effect
same,Average rate of reaction,RecQ helicase; 0.06 μg/mL,119.381
same,Rate (Triplicate),RecQ helicase; 0.06 μg/mL,156.0857 and 120.9143 and 81.14
same,"Fluorescence at 35 minutes, Run 2",RecQ helicase; 0.2 μg/mL,3820 RFU and 2972 RFU
same,"Fluorescence at time 0, Run 2",RecQ helicase; 0.2 μg/mL,5788 RFU and 4210 RFU
same,Average rate of reaction,RecQ helicase; 0.2 μg/mL,54.7
same,"Fluorescence at 35 minutes, Run 2",RecQ helicase; 0.6 μg/mL,4426 RFU and 3662 RFU
same,"Fluorescence at time 0, Run 2",RecQ helicase; 0.6 μg/mL,9244 RFU and 9661 RFU
same,Average rate of reaction,RecQ helicase; 0.6 μg/mL,39.68
same,"Fluorescence at 35 minutes, Run 2",RecQ helicase; 2 μg/mL,4289 RFU and 4448 RFU
same,"Fluorescence at time 0, Run 2",RecQ helicase; 2 μg/mL,8530 RFU and 9826 RFU
same,Average rate of reaction,RecQ helicase; 2.0 μg/mL,98.63
same,"Fluorescence at 35 minutes, Run 2",RecQ helicase; 6 μg/mL,3604 RFU and 4445 RFU
same,Average rate of reaction,RecQ helicase; 6.0 μg/mL,107.0439
same,"Fluorescence at 35 minutes, Run 2",RecQ helicase; 20 μg/mL,5025 RFU and 5336 RFU
same,"Fluorescence at time 0, Run 2",RecQ helicase; 20 μg/mL,5022 RFU and 5466 RFU
same,Average rate of reaction,RecQ helicase; 20.0 μg/mL,42.49
same,"Fluorescence at 35 minutes, Run 2",RecQ helicase; 60 μg/mL,4100 RFU and 3834 RFU
same,Average rate of reaction,RecQ helicase; 60.0 μg/mL,85
same,"Fluorescence at 35 minutes, Run 2",RecQ helicase; 200 μg/mL,2562 RFU and 2378 RFU
same,"Fluorescence at time 0, Run 2",RecQ helicase; 200 μg/mL,4555 RFU and 3893 RFU
same,Average rate of reaction,RecQ helicase; 200.0 μg/mL,69.46
same,Rate (Triplicate),RecQ helicase; 200.0 μg/mL,81.98 and 52.34 and 74.0595
same,"Fluorescence at 0:00:00, Run 1","RecQ helicase; TA 0.06 μg/mL (plate column 4, wells A-C)",14946 RFU and 8957 RFU and 8828 RFU
same,"Fluorescence at 0:00:00, Run 1",RecQ helicase; [1],10047 RFU and 9670 RFU and 6773 RFU
same,"Fluorescence at 0:35:00, Run 1",RecQ helicase; [1],7144 RFU and 8199 RFU and 5403 RFU
same,"Fluorescence at 0:35:00, Run 1","RecQ helicase; TA 0.6 μg/mL (plate column 6, wells A-C)",7961 RFU and 4234 RFU and 5238 RFU
same,"Fluorescence at 0:00:00, Run 1",RecQ helicase; [2],12406 RFU and 10235 RFU and 7932 RFU
same,"Fluorescence at 0:35:00, Run 1",RecQ helicase; [2],8386 RFU and 5162 RFU and 6669 RFU
same,"Fluorescence at 0:00:00, Run 1",RecQ helicase; [3],13174 RFU and 13286 RFU and 6908 RFU
same,"Fluorescence at 0:35:00, Run 1",RecQ helicase; [3],9109 RFU and 7022 RFU and 6649 RFU
same,"Fluorescence at 0:35:00, Run 1","RecQ helicase; TA 20 μg/mL (plate column 9, wells A-C)",7412 RFU and 10338 RFU and 6947 RFU
same,"Fluorescence at 0:35:00, Run 1","RecQ helicase; TA 60 μg/mL (plate column 10, wells A-C)",8883 RFU and 7317 RFU and 6795 RFU
same,"Fluorescence at 0:00:00, Run 1",RecQ helicase; [4],6608 RFU and 4850 RFU and 6196 RFU
same,"Fluorescence at 0:35:00, Run 1",RecQ helicase; [4],5004 RFU and 3826 RFU and 4747 RFU
same,"Fluorescence at 0:00:00, Run 1",RecQ helicase; [5],5165 RFU and 8965 RFU and 8207 RFU
same,"Fluorescence at 0:35:00, Run 1",RecQ helicase; [5],3022 RFU and 4495 RFU and 5122 RFU
same,Change in helicase activity compared to the DMSO control,RecQ helicase,no observed consistent change
same,Change in helicase activity compared to the DMSO control,RecQ helicase; listed as myricetin,no effect
